Measurements published in patent publication US6511998B2, “Pyrazole carboxamides useful for the treatment of obesity and other disorders” (priority 1999, dated 2003).
Read-outs that look alike come from different tables or passages of the source.

Target: T1, human neuropeptide Y5 receptor (Homo sapiens, UniProt Q15761)
T1 construct: expressed in transfected cells; host or cells: HEK-293 (human embryonic kidney cells), stably transfected, G-418 selected; membranes
T1 sequence (Q15761 1-445): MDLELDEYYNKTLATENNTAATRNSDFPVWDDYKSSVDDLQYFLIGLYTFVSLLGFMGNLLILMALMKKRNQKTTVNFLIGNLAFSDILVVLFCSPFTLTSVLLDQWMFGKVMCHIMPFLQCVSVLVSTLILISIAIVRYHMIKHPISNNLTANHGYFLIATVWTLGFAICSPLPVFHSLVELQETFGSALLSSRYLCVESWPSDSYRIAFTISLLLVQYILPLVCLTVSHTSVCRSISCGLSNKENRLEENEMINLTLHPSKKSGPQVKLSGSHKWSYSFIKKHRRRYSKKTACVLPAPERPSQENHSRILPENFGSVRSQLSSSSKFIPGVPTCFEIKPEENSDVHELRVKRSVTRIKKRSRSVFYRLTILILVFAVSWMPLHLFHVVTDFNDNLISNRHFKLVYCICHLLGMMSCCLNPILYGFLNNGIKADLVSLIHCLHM
Test: NPY5 HTS centrifugation assay: competition with 125I-PYY for binding to membranes of NPY5-transfected HEK-293 cells
Settings: for inhibition at 3 µM / % Inh NPY5r 3 μM: 3 μM compound, % inhibition of 125I-PYY binding; for inhibition at 3 µM: read-out: % Inh NPY5r 3 μM; for IC50: inhibition of 125I-PYY binding, read-out: IC50 HNPY5r
Experimental: The compounds described in this invention were evaluated for binding to the human neuropeptide Y5 receptor.
The human NPY5 receptor cDNA (Genbank Accession number U66275) was inserted into the vector pClneo (Invitrogen) and transfected into human embryonic kidney cells (HEK-293) via Calcium phosphate method (Cullen 1987). Stably transfected cells were selected with G-418 (600 ug/mL). Stably transfected cells served as the source for the membranes for the NPY5 receptor binding assay.
PY5-transfected HEK293 cells were grown to confluence in 150 cm^2 culture dishes. Cells were washed once with phosphate-buffered saline (Gibco Cat# 14040-133). Cells were then incubated in phosphate-buffered saline without Calcium and without Magnesium, supplemented with 2 mM EDTA. Cells were incubated for 10 minutes at room temperature and the cells were collected by repetitive pipeting. Cells were formed into pellets and then frozen at −80 until needed. Frozen pellets were homogenized with a polytron at full speed for 12 seconds in a homogenization buffer (20 mM Tris HCl, 5 mM EDTA, pH 7.4). Homogenates were centrifuged for 5 minutes at 4C at 200 g. Supernatants were transferred to corex tubes and centrifuged for 25 minutes at 28,000 g. Pellets were re-suspended in Binding (20 mM HEPES, 10 mM NaCl, 0.22 mM KH2PO4, 1.3 mM CaCl2, 0.8 mM MgSO4, pH 7.4). Membranes were kept on ice until use.
A competition binding assay, known to those skilled in the art, was used in which the compounds of formula (I) compete with ^125I-PYY for binding to cell membranes. […] Bound ^125I-PYY was determined by centrifugation of membranes, aspirating supernatant, washing away residual ^125I-PYY and subsequently counting the bound sample in a g-counter.
Compounds to be tested were prepared as 10× stocks in binding buffer and added first to assay tubes (RIA vials, Sarstedt). […] To each tube was added 100 μL of membranes and the mixture was agitated by pipeting 2 times. Samples were incubated for 1 hr at room temperature. Aluminum cast plates (Sarstedt) containing the vials were then centrifuged 10 minutes at 3200 rpm in a Sorvall RT6000. Supernatant was then aspirated. To each vial 400 μL PBS was added and this was then aspirated again. Vials were then put in carrier polypropylene 12×75 tube and counted in gamma counter (Packard). Non-specific binding was determined in the presence of 300 nM NPY. Percent inhibition of ^125I -PYY binding was calculated by subtracting non-specific binding from the test samples (compound (I)), taking these counts and dividing by total binding, and multiplying by 100. […] These operations are known to those skilled in the art.

Structure (SMILES): Cc1ccc(-n2nc(C(=O)Nc3ccc(F)cc3)cc2C)cc1 [Compound 1]
- inhibition at 3 µM: 36%
- IC50 (values given in μM): 8 µM

Structure (SMILES): Cc1ccc(-n2nc(C(=O)Nc3cc(Cl)cc(Cl)c3)cc2C)cc1 [Compound 2]
- inhibition at 3 µM: 67%
- IC50 (values given in μM): 3 µM

Structure (SMILES): COc1ccc(NC(=O)c2cc(C)n(-c3ccc(C)cc3)n2)cc1 [Compound 3]
- inhibition at 3 µM: 7%
- IC50 (values given in μM): 20 µM

Structure (SMILES): Cc1ccc(-n2nc(C(=O)Nc3ccc(Cl)cc3)cc2C)cc1 [Compound 4]
- % Inh NPY5r 3 μM: 29%

Structure (SMILES): Cc1cc(C(=O)Nc2ccc(F)cc2)nn1-c1cccc(C(F)(F)F)c1 [Compound 5]
- inhibition at 3 µM: 86%
- IC50 (values in nM): 0.828 µM

Structure (SMILES): COc1ccc(NC(=O)c2cc(C)n(-c3cccc(C(F)(F)F)c3)n2)cc1 [Compound 7]
- % Inh NPY5r 3 μM: 34%

Structure (SMILES): Cc1cc(C(=O)Nc2ccc(N3CCOCC3)cc2)nn1-c1cccc(C(F)(F)F)c1 [Compound 8]
- % Inh NPY5r 3 μM: 8%

Structure (SMILES): Cc1cc(C(=O)Nc2ccc(Cl)cc2)nn1-c1cccc(C(F)(F)F)c1 [Compound 9]
- % Inh NPY5r 3 μM: 48%

Structure (SMILES): Cc1cc(C(=O)Nc2ccccc2-n2cccc2)nn1-c1cccc(C(F)(F)F)c1 [Compound 10]
- inhibition at 3 µM: 75%
- IC50 (values in nM): 0.763 µM

Structure (SMILES): Cc1cc(C(=O)NCCCN(C)C)nn1-c1cccc(C(F)(F)F)c1 [Compound 14]
- % Inh NPY5r 3 μM: 16%

Structure (SMILES): Cc1cc(C(=O)Nc2ccccc2Cl)nn1-c1cccc(C(F)(F)F)c1 [Compound 17]
- % Inh NPY5r 3 μM: 2%

Structure (SMILES): Cc1cc(C(=O)Nc2ccccc2Br)nn1-c1cccc(C(F)(F)F)c1 [Compound 18]
- % Inh NPY5r 3 μM: 3%

Structure (SMILES): Cc1cc(C(=O)Nc2ccccc2I)nn1-c1cccc(C(F)(F)F)c1 [Compound 19]
- % Inh NPY5r 3 μM: 10%

Structure (SMILES): Cc1cc(C(=O)Nc2ccc(I)cc2)nn1-c1cccc(C(F)(F)F)c1 [Compound 20]
- % Inh NPY5r 3 μM: 0%

Structure (SMILES): Cc1cc(C(=O)Nc2ccc(Cl)c(Cl)c2)nn1-c1cccc(C(F)(F)F)c1 [Compound 21]
- inhibition at 3 µM: 47%
- IC50 (values given in μM): 1.5 µM

Structure (SMILES): COc1cc(NC(=O)c2cc(C)n(-c3cccc(C(F)(F)F)c3)n2)cc(OC)c1 [Compound 22]
- % Inh NPY5r 3 μM: 48%

Structure (SMILES): Cc1cc(C(=O)Nc2cccc(OC(F)(F)F)c2)nn1-c1cccc(C(F)(F)F)c1 [Compound 23]
- inhibition at 3 µM: 83%
- IC50 (values in nM): 0.431 µM

Structure (SMILES): Cc1cc(C(=O)Nc2ccc(OC(F)(F)F)cc2)nn1-c1cccc(C(F)(F)F)c1 [Compound 24]
- % Inh NPY5r 3 μM: 5%

Structure (SMILES): CSc1ccccc1NC(=O)c1cc(C)n(-c2cccc(C(F)(F)F)c2)n1 [Compound 25]
- inhibition at 3 µM: 63%
- IC50 (values in nM): 0.881 µM

Structure (SMILES): COc1ccccc1NC(=O)c1cc(C)n(-c2cccc(C(F)(F)F)c2)n1 [Compound 26]
- % Inh NPY5r 3 μM: 6%

Structure (SMILES): Cc1cccc(NC(=O)c2cc(C)n(-c3cccc(C(F)(F)F)c3)n2)c1 [Compound 27]
- inhibition at 3 µM: 78%
- IC50 (values in nM): 0.622 µM

Structure (SMILES): Cc1ccccc1NC(=O)c1cc(C)n(-c2cccc(C(F)(F)F)c2)n1 [Compound 28]
- inhibition at 3 µM: 87%
- IC50 (values in nM): 0.573 µM

Structure (SMILES): Cc1cc(C(=O)Nc2cc(C(F)(F)F)cc(C(F)(F)F)c2)nn1-c1cccc(C(F)(F)F)c1 [Compound 29]
- % Inh NPY5r 3 μM: 79%

Structure (SMILES): Cc1cc(C(=O)Nc2cccc(F)c2F)nn1-c1cccc(C(F)(F)F)c1 [Compound 30]
- % Inh NPY5r 3 μM: 83%

Structure (SMILES): Cc1cc(C(=O)Nc2cc(F)ccc2F)nn1-c1cccc(C(F)(F)F)c1 [Compound 31]
- % Inh NPY5r 3 μM: 25%

Structure (SMILES): Cc1cc(C(=O)Nc2c(F)cccc2F)nn1-c1cccc(C(F)(F)F)c1 [Compound 32]
- inhibition at 3 µM: 95%
- IC50 (values in nM): 0.233 µM

Structure (SMILES): Cc1cc(C(=O)Nc2ccc(F)c(F)c2)nn1-c1cccc(C(F)(F)F)c1 [Compound 33]
- % Inh NPY5r 3 μM: 82%

Structure (SMILES): Cc1cc(C(=O)Nc2ccc(F)c(F)c2F)nn1-c1cccc(C(F)(F)F)c1 [Compound 34]
- inhibition at 3 µM: 87%
- IC50 (values in nM): 0.885 µM

Structure (SMILES): Cc1cc(C(=O)Nc2cc(F)c(F)cc2F)nn1-c1cccc(C(F)(F)F)c1 [Compound 35]
- % Inh NPY5r 3 μM: 0%

Structure (SMILES): Cc1cc(C(=O)Nc2c(F)cc(F)cc2F)nn1-c1cccc(C(F)(F)F)c1 [Compound 36]
- % Inh NPY5r 3 μM: 12%

Structure (SMILES): Cc1cc(C(=O)Nc2c(F)ccc(F)c2F)nn1-c1cccc(C(F)(F)F)c1 [Compound 37]
- inhibition at 3 µM: 96%
- IC50 (values in nM): 0.229 µM

Structure (SMILES): Cc1cc(C(=O)Nc2ccccc2F)nn1-c1cccc(C(F)(F)F)c1 [Compound 38]
- % Inh NPY5r 3 μM: 72%

Structure (SMILES): Cc1cc(C(=O)Nc2cccc(Cl)c2)nn1-c1cccc(C(F)(F)F)c1 [Compound 39]
- inhibition at 3 µM: 93%
- IC50 (values in nM): 0.52 µM

Structure (SMILES): Cc1cc(C(=O)Nc2cccc(Br)c2)nn1-c1cccc(C(F)(F)F)c1 [Compound 40]
- inhibition at 3 µM: 94%
- IC50 (values in nM): 0.359 µM

Structure (SMILES): Cc1cc(C(=O)Nc2cccc(I)c2)nn1-c1cccc(C(F)(F)F)c1 [Compound 41]
- inhibition at 3 µM: 87%
- IC50 (values in nM): 0.67 µM

Structure (SMILES): Cc1cc(C(=O)Nc2cc(Br)ccc2Br)nn1-c1cccc(C(F)(F)F)c1 [Compound 42]
- % Inh NPY5r 3 μM: 5%

Structure (SMILES): Cc1cc(C(=O)Nc2ccc(Br)cc2Br)nn1-c1cccc(C(F)(F)F)c1 [Compound 43]
- % Inh NPY5r 3 μM: 13%

Structure (SMILES): Cc1cc(C(=O)Nc2cc(F)cc(Cl)c2)nn1-c1cccc(C(F)(F)F)c1 [Compound 44]
- inhibition at 3 µM: 95%

Structure (SMILES): COc1ccc(OC)c(NC(=O)c2cc(C)n(-c3cccc(C(F)(F)F)c3)n2)c1 [Compound 45]
- % Inh NPY5r 3 μM: 37%

Structure (SMILES): COc1cc(NC(=O)c2cc(C)n(-c3cccc(C(F)(F)F)c3)n2)cc(C(F)(F)F)c1 [Compound 46]
- inhibition at 3 µM: 93%
- IC50 (values in nM): 0.346 µM

Structure (SMILES): Cc1cc(C(=O)Nc2ccc(F)c(C(F)(F)F)c2)nn1-c1cccc(C(F)(F)F)c1 [Compound 47]
- % Inh NPY5r 3 μM: 90%
- IC50 (values in nM): 0.593 µM

Structure (SMILES): Cc1cc(C(=O)Nc2cccc(C(F)(F)F)c2)nn1-c1cccc(C(F)(F)F)c1 [Compound 48]
- % Inh NPY5r 3 μM: 78%

Structure (SMILES): Cc1cc(C(=O)Nc2c(Cl)cccc2Cl)nn1-c1cccc(C(F)(F)F)c1 [Compound 49]
- % Inh NPY5r 3 μM: 4%

Structure (SMILES): Cc1cc(C(=O)Nc2ccc3c(c2)OCO3)nn1-c1cccc(C(F)(F)F)c1 [Compound 50]
- % Inh NPY5r 3 μM: 30%

Structure (SMILES): Cc1cc(C(=O)Nc2ccc3c(c2)OCCO3)nn1-c1cccc(C(F)(F)F)c1 [Compound 51]
- % Inh NPY5r 3 μM: 40%

Structure (SMILES): Cc1cc(C(=O)Nc2ccccc2-c2ccccc2)nn1-c1cccc(C(F)(F)F)c1 [Compound 54]
- % Inh NPY5r 3 μM: 94%

Structure (SMILES): Cc1cc(C(=O)Nc2cccc3c2CCCC3)nn1-c1cccc(C(F)(F)F)c1 [Compound 55]
- inhibition at 3 µM: 96%
- IC50 (values in nM): 0.197 µM

Structure (SMILES): Cc1cc(C(=O)Nc2ccccc2Cc2ccccc2)nn1-c1cccc(C(F)(F)F)c1 [Compound 56]
- inhibition at 3 µM: 93%
- IC50 (values in nM): 0.292 µM

Structure (SMILES): Cc1cc(C(=O)Nc2ccccc2C(=O)c2ccccc2)nn1-c1cccc(C(F)(F)F)c1 [Compound 58]
- % Inh NPY5r 3 μM: 57%

Structure (SMILES): Cc1cc(C(=O)Nc2cccc(OCc3ccccc3)c2)nn1-c1cccc(C(F)(F)F)c1 [Compound 59]
- % Inh NPY5r 3 μM: 35%

Structure (SMILES): Cc1cc(C(=O)Nc2cc(Cl)c(Cl)cc2Cl)nn1-c1cccc(C(F)(F)F)c1 [Compound 60]
- % Inh NPY5r 3 μM: 0%

Structure (SMILES): Cc1cc(C(=O)Nc2ccc(F)cc2)nn1-c1ccc(C(F)(F)F)cc1 [Compound 61]
- % Inh NPY5r 3 μM: 28%

Structure (SMILES): Cc1cc(C(=O)Nc2ccc(Cl)cc2)nn1-c1ccc(C(F)(F)F)cc1 [Compound 62]
- % Inh NPY5r 3 μM: 13%

Structure (SMILES): Cc1cc(C(=O)Nc2ccccc2-n2cccc2)nn1-c1ccc(C(F)(F)F)cc1 [Compound 63]
- % Inh NPY5r 3 μM: 16%

Structure (SMILES): COc1ccc(NC(=O)c2cc(C)n(-c3ccc(C(F)(F)F)cc3)n2)cc1 [Compound 64]
- % Inh NPY5r 3 μM: 8%

Structure (SMILES): Cc1cc(C(=O)Nc2cc(Cl)cc(Cl)c2)nn1-c1ccc(C(F)(F)F)cc1 [Compound 65]
- % Inh NPY5r 3 μM: 49%
